What was measured:
[1] = system: psoriasis mouse animal model; assay: Psoriasis mouse animal model (imiquimod-induced); assay type: in vivo, BALB/c mice; conditions: 40 mg/kg intraperitoneally twice a day
Text: To confirm the therapeutic effect of compounds according to the present invention on psoriasis, a psoriasis animal model was established to evaluate the alleviation of skin lesions and changes in immune cell profiles by administering Compound 69 or Compound 83 via injection.
To establish a psoriasis mouse animal model, BALB/c mice (7 weeks old, 20 g, female) were purchased from Hana Biotech Co. and allowed to acclimate to the housing environment for one week. Afterward, the fur on the dorsal area of the mice was initially shaved using a shaver, followed by complete removal with depilatory cream (Nicrin Cream, comprising thioglycolic acid 80%, manufactured by ILDONG Pharmaceutical CO., LTD). The mice were then housed for 24 hours to confirm any wounds on their backs.
Subsequently, in order to verify the preventive and therapeutic effects of compounds according to the present invention on psoriasis, five experimental groups were established as shown in FIG. 7 and Table 5. From the second to the fifth group, Aldara® cream was applied once daily for two weeks (14 days, total of 14 applications) at a dose of 80 mg (imiquimod, 4 mg) per mouse to induce psoriasis. Furthermore, to compare the preventive and therapeutic effects of compounds according to the present invention (Compound 69 and Compound 83) on psoriasis, 40 mg/kg of the compound per mouse was dissolved in DMSO corresponding to 10% of the dosing volume, and then diluted in a mixture of Cremophor EL-PEG 400-distilled water to achieve a final ratio of DMSO: Cremophor EL:PEG 400:distilled water to 1:1:4:4 (v/v/v/v). Subsequently, the respective injections were intraperitoneally administered at a dose of 100 μL per mouse, twice a day with a 12-hour interval. For the Vehicle control group, injections excluding the drug but comprising the vehicle solution (DMSO: Cremophor EL:PEG 400:distilled water=1:1:4:4 (v/v/v/v)) were administered at a dose of 100 μL per mouse, twice a day with a 12-hour interval.
To assess the impact of each compound on immune cells in vivo, the spleens of mice treated with each compound were harvested, and cells were extracted, and cells were suspended in MACS buffer (2 mM EDTA, 0.5% FBS, 137 mM NaCl, 2.7 mM KCl, 10 mM Na2HPO4, 1.8 mM KH2PO4, Miltenyi Biotech.). For flow cytometry analysis, each mouse's splenocytes were aliquoted at 5×10^5 cells per FACS tube (5 mL round tube, Falcon). To prevent non-specific antibody binding, each tube was treated with 1 μg/mL of anti-mouse CD16/CD32 (InVivoMAb) for 30 minutes, followed by centrifugation at 13,000 rpm for 5 minutes, and resuspended in 100 μL of MACS buffer. Subsequent experiments were conducted depending on the type of immune cells to be examined.
(§1) For B cells, each FACS tube was stained with 1 μg/mL of FITC-conjugated anti-B220 antibody (eBioscience™) at 4° C. for 30 minutes, followed by washing with 2 mL of MACS buffer. Subsequently, each tube was centrifuged at 15,000 rpm for 5 minutes, the supernatant was removed, and the precipitated cells were fixed using 200 μL of 4% paraformaldehyde solution.
For T cells, each FACS tube was stained with 1 μg/mL of PerCP-Cy5.5-conjugated anti-CD3 antibody (Biolegend), FITC-conjugated anti-CD8 antibody (eBioscience™) and Cy7-conjugated anti-CD4 antibody (eBioscience™) at 4° C. for 30 minutes, followed by washing with 2 mL of MACS buffer. Subsequently, each tube was centrifuged at 15,000 rpm for 5 minutes, the supernatant was removed, and the precipitated cells were fixed using 200 μL of 4% paraformaldehyde solution.
as §1, with “macrophages,” for “B cells,”, “anti-CD11b” for “anti-B220”

[2] = system: T lymphocyte cell line Jurkat E6-1; assay: Cytotoxicity experiment (CCK-8, relative cell survival); assay type: cell-based; conditions: 24 hours, untreated cells = 100%
How it was run: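 Jurkat cells in RPMI-1640 with 10% FBS were exposed to compounds at several concentrations for 24 h at 37 °C, 5% CO2. CCK-8 added for 2 h, absorbance read at 450 nm; survival expressed relative to untreated cells (100%).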

spleen T cells [3] = assay: T cell proliferation inhibition (CFSE, FACS), CD3/CD28-activated spleen T cells; assay type: cell-based, C57BL/6 mice; conditions: Table 2, 3 days, relative to CD3/CD28+DMSO; for inhibition at 10 µM / inhibition at 30 µM / inhibition at 50 µM: Mus musculus, T-cell, 72 h, read-out: Proliferation inhibition rate (%)
How it was run: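 CFSE-labelled splenic T cells (CD90.2-isolated, 7-week C57BL/6 mice), 2×10^5/well, activated with anti-CD3/CD28 (0.5 μg/mL each) plus compound at 10, 30 or 50 μM in triplicate for 3 days at 37 °C. CFSE dilution by flow cytometry; inhibition % relative to CD3/CD28+DMSO proliferation.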

spleen T cells [4] = assay: Cytokine secretion by anti-CD3/CD28-activated T cells (Cytometric Bead Array); assay type: cell-based, C57BL/6 mice; conditions: 30 μM; for secretion of IL-2: 24 hours after treatment, FIG. 3; for secretion of IFN-γ / secretion of IL-17A / secretion of TNF-α: 72 hours after treatment
Description: To confirm the effect of compounds of the present invention on the secretion of cytokines by T cells, the following experiment was conducted.
Spleens were harvested and minced from C57BL/6 mice at 7 weeks of age, and single cells were isolated using a strainer (40 μm pore size, SPL). Red blood cells were removed using ACK (Ammonium-Chloride-Potassium) lysis buffer to isolate only leukocytes. These were then reacted with 10 v/v % CD90.2 microbeads (130-121-278, Miltenyi Biotech.) at 4° C. for 20 minutes, resulting in the isolation of spleen T cells from magnetic-based purification. The T cells were cultured in a 96-well plate at an amount of 2×10^5 cells/well. For T cell activation, each well was treated with anti-CD3/CD28 antibodies at a concentration of 1 μg/mL. Subsequently, Vehicle (DMSO) and compounds (Compound 14, Compound 19, Compound 26, Compound 31, Compound 35, Compound 40, Compound 41, Compound 56, Compound 69, Compound 75) at a concentration of 30 μM were treated in each well, and it was cultured at 37° C. in a 5% CO2 incubator. After 24 and 72 hours, the T cell culture medium was taken, and centrifugation was performed at 13,000 rpm for 10 minutes to obtain the supernatant.
To measure the concentration of cytokines present in the T cell culture medium, Mouse Th1/Th2/Th17 Cytokine CBA Kit (Cytometric Bead Array kit) 560485 from BD Science was utilized for flow cytometry analysis. The secretion levels of IL-2 at 24 hours after each drug treatment, and IFN-γ, TNF-α, and IL-17A at 72 hours were measured after each drug treatment.

[5] = flow cytometry, versus psoriasis groups, FIG. 10

`O=C(NCCCCCCCCCCCCO)c1ccccc1Br` [Compound 83] was tested, and the “skin lesions (erythema, thickness, exfoliation of back skin)” value ([1]; 14 days, FIG. 8) was “either minimally present or hardly observed”, the “hyperkeratosis, parakeratosis, irregular acanthosis, infiltration of inflammatory cells (H&E staining)” value ([1]; 14 days, FIG. 9) was “either minimally present or hardly observed” and the “proportion of B cells in the spleen” value [1, 5] was “increase”. For the same compound, the “proportion of CD11b granulocytes in the spleen” value [1, 5] was “decreased”, the “proportion of T cells in the spleen” value [1, 5] was “increase” and the “Relative cell survival rate (%)” value ([2]; 10 μM) was 102%. For the same compound, the “Relative cell survival rate (%)” value ([2]; 20 μM) was 105%, the “Relative cell survival rate (%)” value ([2]; 30 μM) was 87% and the “Relative cell survival rate (%)” value ([2]; 50 μM) was 77%. For the same compound, the inhibition at 10 µM (spleen T cells [3]; 10 μM) was 0%, the inhibition at 30 µM (spleen T cells [3]; 30 μM) was 63% and the inhibition at 50 µM (spleen T cells [3]; 50 μM) was 100%.
For `CCCCCCCCCCCCNS(=O)(=O)c1c(C)cc(C)cc1C` [Compound 41], the “secretion of IL-2” value (spleen T cells [4]) was “significant decrease”, the “secretion of IFN-γ” value (spleen T cells [4]) was “significant decrease” and the “secretion of IL-17A” value (spleen T cells [4]) was “significant decrease”. For the same compound, the “secretion of TNF-α” value (spleen T cells [4]) was “significant decrease”, the “Relative cell survival rate (%)” value ([2]; 10 μM) was 85% and the “Relative cell survival rate (%)” value ([2]; 20 μM) was 83%. The “Relative cell survival rate (%)” value ([2]; 30 μM) was 82%, the “Relative cell survival rate (%)” value ([2]; 50 μM) was 80% and the “Proliferation inhibition rate (%)” value (spleen T cells [3]; 10 μM) was 80%. The “Proliferation inhibition rate (%)” value (spleen T cells [3]; 30 μM) was 100% and the “Proliferation inhibition rate (%)” value (spleen T cells [3]; 50 μM) was 100%.
`CCCCCCCCCCCCNC(=O)CNC(=O)c1ccccc1Cl` [Compound 56] was tested, and the “secretion of IL-2” value (spleen T cells [4]) was “significant decrease”, the “secretion of IFN-γ” value (spleen T cells [4]) was “significant decrease” and the “secretion of IL-17A” value (spleen T cells [4]) was “significant decrease”. The “secretion of TNF-α” value (spleen T cells [4]) was “significant decrease”, the “Relative cell survival rate (%)” value ([2]; 10 μM) was 92% and the “Relative cell survival rate (%)” value ([2]; 20 μM) was 91%. For the same compound, the “Relative cell survival rate (%)” value ([2]; 30 μM) was 89%, the “Relative cell survival rate (%)” value ([2]; 50 μM) was 86% and the “Proliferation inhibition rate (%)” value (spleen T cells [3]; 10 μM) was 26%. For the same compound, the “Proliferation inhibition rate (%)” value (spleen T cells [3]; 30 μM) was 50% and the “Proliferation inhibition rate (%)” value (spleen T cells [3]; 50 μM) was 62%.
In the case of `CCCCCCCCCCCCNC(=O)c1cccnc1` [Compound 19], the “secretion of IL-2” value (spleen T cells [4]) was “significant decrease”, the “secretion of IFN-γ” value (spleen T cells [4]) was “significant decrease” and the “secretion of IL-17A” value (spleen T cells [4]) was “significant decrease”. The “secretion of TNF-α” value (spleen T cells [4]) was “significant decrease”, the “Relative cell survival rate (%)” value ([2]; 10 μM) was 94% and the “Relative cell survival rate (%)” value ([2]; 20 μM) was 87%. For the same compound, the “Relative cell survival rate (%)” value ([2]; 30 μM) was 82%, the “Relative cell survival rate (%)” value ([2]; 50 μM) was 83% and the inhibition at 10 µM (spleen T cells [3]; 10 μM) was 19%. For the same compound, the inhibition at 30 µM (spleen T cells [3]; 30 μM) was 99% and the inhibition at 50 µM (spleen T cells [3]; 50 μM) was 100%.

Source: patent US20250296909A1, “NOVEL BENZENE DERIVATIVE AND IMMUNOSUPPRESSION-RELATED USE THEREOF” (PROVIBIO CO., LTD., priority 2021, published 2025)
